Test results taken from ChEMBL document CHEMBL5465560, “Selectivity Literature for EUbOPEN Chemogenomic Library” (2024).

How the values were obtained:
[1] = target: T1, Rhodopsin kinase GRK1 (Homo sapiens) (UniProt Q15835); assay: Selectivity interaction (Ambit KINOMEscan and KiNATiv profiling in Jurkat cells) EUB0000090b GRK1; type: cell-based; details: at 1 µM
T1 sequence (whole entry): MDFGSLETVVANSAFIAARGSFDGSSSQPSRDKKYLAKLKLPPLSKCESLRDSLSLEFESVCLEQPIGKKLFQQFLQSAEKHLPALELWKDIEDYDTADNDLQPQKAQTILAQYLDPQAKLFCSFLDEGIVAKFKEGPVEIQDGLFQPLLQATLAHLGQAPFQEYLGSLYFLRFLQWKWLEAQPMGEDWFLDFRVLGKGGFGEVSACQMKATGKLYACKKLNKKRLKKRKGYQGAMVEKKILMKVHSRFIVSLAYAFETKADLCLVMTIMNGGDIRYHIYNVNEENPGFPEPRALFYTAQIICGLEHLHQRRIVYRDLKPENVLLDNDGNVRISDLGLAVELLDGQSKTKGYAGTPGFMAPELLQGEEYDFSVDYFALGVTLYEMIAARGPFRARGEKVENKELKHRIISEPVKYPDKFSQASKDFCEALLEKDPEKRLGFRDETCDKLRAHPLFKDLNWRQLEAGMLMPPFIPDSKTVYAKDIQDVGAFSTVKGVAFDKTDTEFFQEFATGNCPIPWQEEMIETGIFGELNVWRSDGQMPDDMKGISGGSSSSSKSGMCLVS

[2] = target: Ribosomal protein S6 kinase alpha-2 (Homo sapiens) (UniProt Q15349); assay: Selectivity interaction (ActivX KiNativ screen (ex vivo kinase selectivity in human PBMCs)) EUB0001619a RPS6KA2; type: cell-based; details: PBMC, at 1 µM
[3] = target: T2, Serine/threonine-protein kinase TAO1 (Homo sapiens) (UniProt Q7L7X3); assay: Selectivity interaction (KinomeScan (DiscoverX)) EUB0001619a TAOK1; details: at 1 µM
T2 sequence (whole entry): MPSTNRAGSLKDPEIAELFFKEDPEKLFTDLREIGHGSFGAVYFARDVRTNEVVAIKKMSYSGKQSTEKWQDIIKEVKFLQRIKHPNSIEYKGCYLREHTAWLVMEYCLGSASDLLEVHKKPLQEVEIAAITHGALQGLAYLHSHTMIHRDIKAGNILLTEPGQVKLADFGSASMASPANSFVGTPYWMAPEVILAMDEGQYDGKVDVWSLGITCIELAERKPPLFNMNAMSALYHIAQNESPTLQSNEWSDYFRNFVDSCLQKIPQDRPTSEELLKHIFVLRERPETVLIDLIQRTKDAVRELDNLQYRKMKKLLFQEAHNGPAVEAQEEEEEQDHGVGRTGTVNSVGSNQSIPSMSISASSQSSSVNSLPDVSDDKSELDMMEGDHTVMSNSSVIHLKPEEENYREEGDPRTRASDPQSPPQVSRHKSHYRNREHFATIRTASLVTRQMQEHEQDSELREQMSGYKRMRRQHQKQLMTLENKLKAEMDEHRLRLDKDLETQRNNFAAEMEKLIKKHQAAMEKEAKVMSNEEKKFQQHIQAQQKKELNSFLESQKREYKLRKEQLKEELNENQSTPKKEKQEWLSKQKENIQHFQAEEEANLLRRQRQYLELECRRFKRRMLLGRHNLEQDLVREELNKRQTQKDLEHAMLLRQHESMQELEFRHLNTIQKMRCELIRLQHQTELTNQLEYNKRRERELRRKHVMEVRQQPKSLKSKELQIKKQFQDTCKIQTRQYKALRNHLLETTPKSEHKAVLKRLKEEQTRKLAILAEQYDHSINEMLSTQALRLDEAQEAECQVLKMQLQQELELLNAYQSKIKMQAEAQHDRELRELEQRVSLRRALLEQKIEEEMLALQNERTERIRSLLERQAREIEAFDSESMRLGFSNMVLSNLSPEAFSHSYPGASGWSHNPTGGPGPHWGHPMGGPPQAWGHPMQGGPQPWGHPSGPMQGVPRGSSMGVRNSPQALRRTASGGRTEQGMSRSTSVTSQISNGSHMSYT

[4] = target: Serine/threonine-protein kinase MARK2 (Homo sapiens) (UniProt Q7KZI7); assay: Selectivity interaction (KinomeScan (DiscoverX)) EUB0000045b MARK2
[5] = target: Serine/threonine-protein kinase Chk1 (Homo sapiens, UniProt O14757); assay: Selectivity interaction (Enzyme panel (AstraZeneca, AlphaScreen, functional assay)) EUB0000621a CHEK1
[6] = target: T3, Serine/threonine-protein kinase 3 (Homo sapiens) (UniProt Q13188); details: at 10 µM
T3 sequence (whole entry): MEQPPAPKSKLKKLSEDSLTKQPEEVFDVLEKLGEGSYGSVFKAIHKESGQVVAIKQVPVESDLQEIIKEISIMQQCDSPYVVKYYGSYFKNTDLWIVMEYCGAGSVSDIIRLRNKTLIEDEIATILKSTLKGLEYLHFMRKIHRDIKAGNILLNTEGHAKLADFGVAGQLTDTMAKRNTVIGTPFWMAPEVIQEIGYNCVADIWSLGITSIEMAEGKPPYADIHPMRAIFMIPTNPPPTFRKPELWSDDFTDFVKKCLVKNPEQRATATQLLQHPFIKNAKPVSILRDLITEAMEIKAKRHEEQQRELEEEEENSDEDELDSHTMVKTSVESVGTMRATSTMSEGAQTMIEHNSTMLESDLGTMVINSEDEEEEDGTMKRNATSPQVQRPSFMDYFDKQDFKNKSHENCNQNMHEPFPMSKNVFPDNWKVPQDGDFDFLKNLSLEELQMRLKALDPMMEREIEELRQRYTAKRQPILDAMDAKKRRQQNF

[7] = target: T4, Serine/threonine-protein kinase 4 (Homo sapiens) (UniProt Q13043); assay: Selectivity interaction (Kinase panel (Z-LYTE Assay)) EUB0001632a STK4; details: at 10 µM
T4 sequence (whole entry): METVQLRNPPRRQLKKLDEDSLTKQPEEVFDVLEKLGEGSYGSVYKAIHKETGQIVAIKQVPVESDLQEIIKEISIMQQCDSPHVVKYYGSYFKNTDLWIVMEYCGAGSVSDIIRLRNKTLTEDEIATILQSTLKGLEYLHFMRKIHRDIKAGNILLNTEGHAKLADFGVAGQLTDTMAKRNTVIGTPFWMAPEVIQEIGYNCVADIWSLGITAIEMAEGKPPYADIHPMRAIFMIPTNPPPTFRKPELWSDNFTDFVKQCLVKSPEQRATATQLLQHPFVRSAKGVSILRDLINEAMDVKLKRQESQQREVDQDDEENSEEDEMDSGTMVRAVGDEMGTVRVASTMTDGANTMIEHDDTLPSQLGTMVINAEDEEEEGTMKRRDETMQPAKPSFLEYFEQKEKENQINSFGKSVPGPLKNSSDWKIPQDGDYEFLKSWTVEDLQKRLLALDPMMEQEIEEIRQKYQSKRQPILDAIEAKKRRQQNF

Serine/threonine-protein kinase MARK2 (Homo sapiens), sequence (Q7KZI7 whole entry): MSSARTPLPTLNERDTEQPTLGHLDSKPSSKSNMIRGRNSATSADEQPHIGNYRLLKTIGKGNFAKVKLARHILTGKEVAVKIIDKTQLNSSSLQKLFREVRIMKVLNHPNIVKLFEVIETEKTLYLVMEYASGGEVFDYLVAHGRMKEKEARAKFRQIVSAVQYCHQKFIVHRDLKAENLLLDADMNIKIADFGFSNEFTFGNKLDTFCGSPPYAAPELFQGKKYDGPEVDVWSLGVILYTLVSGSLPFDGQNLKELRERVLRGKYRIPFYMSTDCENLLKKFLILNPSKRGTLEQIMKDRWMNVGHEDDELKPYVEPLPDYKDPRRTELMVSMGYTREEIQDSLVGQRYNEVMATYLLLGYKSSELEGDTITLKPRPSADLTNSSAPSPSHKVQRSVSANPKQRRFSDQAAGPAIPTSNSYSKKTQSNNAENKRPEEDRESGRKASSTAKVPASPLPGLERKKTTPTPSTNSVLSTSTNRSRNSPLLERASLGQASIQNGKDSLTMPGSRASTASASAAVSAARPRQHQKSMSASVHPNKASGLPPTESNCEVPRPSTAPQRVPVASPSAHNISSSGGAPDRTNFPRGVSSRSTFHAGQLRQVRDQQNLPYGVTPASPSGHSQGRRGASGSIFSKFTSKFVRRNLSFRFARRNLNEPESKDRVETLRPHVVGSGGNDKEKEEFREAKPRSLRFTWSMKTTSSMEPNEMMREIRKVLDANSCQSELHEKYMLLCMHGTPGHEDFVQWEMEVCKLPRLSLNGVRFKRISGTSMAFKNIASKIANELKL
Ribosomal protein S6 kinase alpha-2 (Homo sapiens), sequence (Q15349 whole entry): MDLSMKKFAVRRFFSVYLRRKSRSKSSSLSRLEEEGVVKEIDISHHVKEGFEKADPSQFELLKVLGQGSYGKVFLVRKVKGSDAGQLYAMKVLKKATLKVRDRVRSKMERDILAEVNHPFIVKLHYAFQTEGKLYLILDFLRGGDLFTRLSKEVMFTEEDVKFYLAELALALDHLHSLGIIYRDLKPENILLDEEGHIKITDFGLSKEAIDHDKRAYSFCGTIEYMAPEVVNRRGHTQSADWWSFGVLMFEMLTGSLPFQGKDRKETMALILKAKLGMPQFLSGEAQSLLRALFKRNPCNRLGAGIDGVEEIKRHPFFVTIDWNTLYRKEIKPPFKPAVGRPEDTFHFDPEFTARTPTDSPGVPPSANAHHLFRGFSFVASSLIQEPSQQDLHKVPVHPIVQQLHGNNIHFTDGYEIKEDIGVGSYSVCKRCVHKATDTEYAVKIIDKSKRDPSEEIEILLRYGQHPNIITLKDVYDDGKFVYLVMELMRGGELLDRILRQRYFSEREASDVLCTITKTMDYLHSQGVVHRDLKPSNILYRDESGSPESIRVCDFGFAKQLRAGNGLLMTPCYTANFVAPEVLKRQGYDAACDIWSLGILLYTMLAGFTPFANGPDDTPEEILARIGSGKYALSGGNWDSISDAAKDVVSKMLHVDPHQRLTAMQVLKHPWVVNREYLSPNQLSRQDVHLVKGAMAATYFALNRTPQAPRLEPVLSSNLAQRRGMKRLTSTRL
Serine/threonine-protein kinase Chk1, sequence (O14757 whole entry): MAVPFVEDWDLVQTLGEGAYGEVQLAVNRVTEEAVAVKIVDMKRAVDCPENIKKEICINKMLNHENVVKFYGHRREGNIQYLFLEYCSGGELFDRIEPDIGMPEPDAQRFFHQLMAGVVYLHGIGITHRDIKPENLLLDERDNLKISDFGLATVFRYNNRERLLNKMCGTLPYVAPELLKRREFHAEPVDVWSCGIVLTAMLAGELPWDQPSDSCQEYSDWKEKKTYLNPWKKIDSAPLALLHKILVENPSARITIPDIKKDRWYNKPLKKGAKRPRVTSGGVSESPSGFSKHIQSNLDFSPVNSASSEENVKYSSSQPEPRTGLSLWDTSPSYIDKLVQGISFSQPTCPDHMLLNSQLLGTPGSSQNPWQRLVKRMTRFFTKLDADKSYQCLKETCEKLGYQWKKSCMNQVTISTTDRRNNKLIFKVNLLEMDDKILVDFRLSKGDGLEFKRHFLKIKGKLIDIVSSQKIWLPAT

Work on `CN(C)C/C=C/C(=O)Nc1ccc(C(=O)N2CCCC(Nc3ncc(Cl)c(-c4c[nH]c5ccccc45)n3)C2)cc1` (stereo not drawn) yielded a % of control [1] of 57%.
For `N#Cc1cccc(-c2c[nH]c3ncnc(N4CCOCC4)c23)c1`, the % of inhibition [2] was -3% and the % of control [3] was 6.4%.
`C=CC(=O)Nc1cc(-n2c(=O)ccc3cnc4ccc(-c5ccc(NS(C)(=O)=O)cc5)cc4c32)ccc1C` gave a % of control ([4]; at 1 µM) of 94% and a % of control ([4]; at 10 µM) of 100%.
For `Cc1cc([C@@H](C)Nc2ccccc2C(=O)O)c2nc(N3CCOCC3)cc(=O)n2c1` [AZD-6482], the IC50 [5] was > 1000 µM and the % of control [6] was 66%.
`Cn1cc(-n2cnc3c(NCc4nc5cc(Cl)c(Cl)cc5[nH]4)nc(N4CCOCC4)nc32)cn1` showed a % of control [7] of -9.12%.
